For series [1] the following is noted: in vivo; cited from earlier work.
Series [2] is described as follows: Effect of relative humidity on adsorption of water vapour (deliquescence). The series is classed as physicochemical.

In the case of `CN(C)C(=O)Oc1ccc[n+](C)c1` [Pyridostigmine, (1-methylpyridin-1-ium-3-yl) N,N-dimethylcarbamate], in series [1], the biological half-life was 2-3 hours. In the case of `CN(C)C(=O)Oc1ccc[n+](C)c1` [pyridostigmine bromide], the “relative humidity (RH) at which deliquescence is exhibited” value in series [2] worked out at 33%.
